Here are results for two compounds from patent publication US6750244B2, “Compounds active at a novel site on receptor-operated calcium channels useful for treatment of neurological disorders and diseases” (NPS Pharmaceuticals, Inc., priority 1993, dated 2004).

Like-named read-outs stand apart in the source and are kept apart here.

A short description of data set [1]: Lethality (LD50) after oral administration in Frings mice. Particulars: mouse, in vivo.
Data set [2] deals with NMDA receptor. Put plainly: Inhibition of NMDA/glycine-induced increases in intracellular calcium in cultured rat cerebellar granule cells (RCGC). Format: cell-based. Particulars: NMDA/glycine-induced increases in intracellular calcium, cultured rat cerebellar granule cells; read-out: IC50 (μM) vs. NMDA.
Data set [3] concerns sound-induced seizures. Put plainly: Sound-induced seizures in Frings mice (reflex epilepsy). Format: in vivo. Particulars: Mus musculus, Frings mice.
Data set [4] deals with motor performance. Put plainly: Acute motor impairment (rotorod) in mice. The settings on record: Frings mice, i.p. As for the experimental part: (§1) In this assay, Frings and CF1 mice were injected with test compound and placed on a knurled rod which rotated at a speed of 6 rpm. The ability of the mice to maintain equilibrium for long periods of time was determined; those mice that were unable to maintain equilibrium on the rotorod for 1 min in each of 3 trials were considered impaired.

Data set [5] has as its target NMDA receptor-ionophore complex (site labeled by [3H]MK-801). The data set is described as follows: Inhibition of [3H]MK-801 binding in rat cortical/hippocampal washed membrane preparations. Particulars: read-out: IC50 (μM) vs. [3H]MK-801; rat cortical/hippocampal washed membranes.
Data set [6] deals with mean arterial blood pressure. Particulars: i.v.
Data set [7] deals with behavior. The data set is described as follows: Behavioral effects in conscious male NMRI mice.
Data set [8] relates to motor performance. Put plainly: Motor toxicity (TD50) in rats. Particulars: rats, oral, 25 mg/kg.
Data set [9] deals with behavior. The data set is described as follows: Behavioral effects in conscious beagle dogs.
Data set [10] concerns the target T1, dopamine uptake site (Cavia porcellus, UniProt H0WCX4).
T1 construct: from tissue; host or cells: guinea pig striatal membranes (per the assay title)
The data set is described as follows: Dopamine uptake binding assay: [3H]WIN-35,428 binding to guinea pig striatal membranes.

For data set [11], the system named is mean arterial pressure, heart rate, ECG. Put plainly: Cardiovascular activity in conscious beagle dogs.
Data set [12] is described as follows: in vivo. The settings on record: Frings, mouse, in vivo, ip. The method, then:
as §1

Data set [13] has as its system maximal electroshock-induced seizures. The data set is described as follows: Maximal electroshock-induced seizures in rats. Type of data set: in vivo. Particulars: rats, oral, 25 mg/kg.
Data set [14] concerns thermal nociception. Type of data set: in vivo, rats. Particulars: 25 mg/kg i.p. The method, then:
In this standard assay, the thermal nociceptive stimulus was 52° C. warm water with the latency to tail flick or withdrawal taken as the endpoint.

The subject of data set [15] is focal ischemic stroke. The data set is described as follows: Rat model of focal ischemic stroke (vessel occlusion). Particulars: i.p. 2 mg/kg 30 min prior to vessel occlusion and 2 mg/kg 3 hr post-occlusion. Format: in vivo, rats.
For data set [16], the system named is thermal nociception. Format: in vivo, rats. Particulars: 25 mg/kg i.p. As for the experimental part: In these experiments, a 52° C. hot plate was used as the nociceptive stimulus.
This is another data set of the same source.

Data set [17] has as its system neuronal vacuolization. Particulars: i.p.
Data set [18] has as its system central muscarinic cholinergic receptor. Type of data set: binding, rat.
Data set [19] deals with chronic neuropathic pain. The data set is described as follows: Rat model of chronic neuropathic pain. Format: in vivo, rats.
In data set [20] the target is T2, norepinephrine uptake site (Rattus norvegicus, UniProt Q63380).
T2 construct: from tissue; host or cells: rat cortical membranes (per the assay title)
T2 sequence (Q63380 1-617): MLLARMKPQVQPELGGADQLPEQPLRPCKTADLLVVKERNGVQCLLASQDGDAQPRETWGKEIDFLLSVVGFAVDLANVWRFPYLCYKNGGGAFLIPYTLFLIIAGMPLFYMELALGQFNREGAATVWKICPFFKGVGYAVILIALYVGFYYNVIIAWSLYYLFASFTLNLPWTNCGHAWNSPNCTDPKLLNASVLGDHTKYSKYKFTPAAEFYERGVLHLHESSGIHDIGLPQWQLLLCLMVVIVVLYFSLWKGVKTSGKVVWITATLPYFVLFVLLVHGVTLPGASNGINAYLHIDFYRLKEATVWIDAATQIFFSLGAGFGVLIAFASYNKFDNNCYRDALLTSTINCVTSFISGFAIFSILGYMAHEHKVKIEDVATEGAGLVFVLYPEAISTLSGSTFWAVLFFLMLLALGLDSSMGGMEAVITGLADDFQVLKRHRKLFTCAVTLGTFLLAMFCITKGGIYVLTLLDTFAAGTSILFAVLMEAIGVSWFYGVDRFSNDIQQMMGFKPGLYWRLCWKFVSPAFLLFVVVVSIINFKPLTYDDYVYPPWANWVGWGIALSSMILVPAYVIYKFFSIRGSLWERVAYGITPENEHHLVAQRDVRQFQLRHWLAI
The data set is described as follows: Norepinephrine uptake binding assay: [3H]desipramine binding to rat cortical membranes.

The target in data set [21] is T3, serotonin uptake site (Rattus norvegicus, UniProt P31652).
T3 construct: from tissue; host or cells: rat forebrain membranes (per the assay title)
T3 sequence (P31652 whole entry): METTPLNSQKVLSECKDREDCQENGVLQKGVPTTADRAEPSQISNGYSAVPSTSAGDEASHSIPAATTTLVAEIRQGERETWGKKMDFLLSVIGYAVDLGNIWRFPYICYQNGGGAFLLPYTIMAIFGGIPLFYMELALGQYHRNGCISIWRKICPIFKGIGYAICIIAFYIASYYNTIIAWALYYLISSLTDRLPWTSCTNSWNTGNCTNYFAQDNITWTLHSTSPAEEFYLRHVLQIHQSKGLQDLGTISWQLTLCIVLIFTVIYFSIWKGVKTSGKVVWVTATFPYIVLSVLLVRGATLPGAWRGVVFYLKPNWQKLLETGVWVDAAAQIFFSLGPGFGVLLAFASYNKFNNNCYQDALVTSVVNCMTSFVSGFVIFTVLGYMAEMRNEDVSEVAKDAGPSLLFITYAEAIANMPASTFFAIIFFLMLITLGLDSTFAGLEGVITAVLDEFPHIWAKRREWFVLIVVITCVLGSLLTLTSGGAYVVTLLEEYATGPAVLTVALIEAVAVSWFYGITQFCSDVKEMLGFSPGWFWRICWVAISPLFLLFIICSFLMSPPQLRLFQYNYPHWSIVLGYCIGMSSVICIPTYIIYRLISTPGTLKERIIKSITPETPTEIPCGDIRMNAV
Put plainly: Serotonin uptake binding assay: [3H]citalopram binding to rat forebrain membranes.

In data set [22] the test system is delayed rectifier potassium channel. Put plainly: Inhibition of delayed rectifier potassium channel in cultured N1E-115 neuroblastoma cells. Format: cell-based. The settings on record: read-out: Delayed rectifier potassium channel: estimated IC50.
Data set [23] relates to T4, L-type calcium channel.
T4 construct: L-type calcium channel: estimated IC50, KCl depolarization-induced increases in intracellular calcium; other: cultured
The data set is described as follows: Inhibition of KCl depolarization-induced increases in intracellular calcium in cultured rat cerebellar granule cells. Format: cell-based. The settings on record: cultured rat cerebellar granule cells; read-out: L-type calcium channel: estimated IC50, KCl depolarization-induced increases in intracellular calcium. The source says:
The ability of arylalkylamines to inhibit dihydropyridine-sensitive Ca^2+ channels was examined in cerebellar granule cells and a rat aortic smooth muscle cell line, A7r5 cells.

Setting [24] is: 3 mg/kg i.v. (60 sec bolus injection).
The mark [25] stands for this setting: 10 mg/kg i.v. (60 sec bolus injection).

T1 sequence (H0WCX4 1-619): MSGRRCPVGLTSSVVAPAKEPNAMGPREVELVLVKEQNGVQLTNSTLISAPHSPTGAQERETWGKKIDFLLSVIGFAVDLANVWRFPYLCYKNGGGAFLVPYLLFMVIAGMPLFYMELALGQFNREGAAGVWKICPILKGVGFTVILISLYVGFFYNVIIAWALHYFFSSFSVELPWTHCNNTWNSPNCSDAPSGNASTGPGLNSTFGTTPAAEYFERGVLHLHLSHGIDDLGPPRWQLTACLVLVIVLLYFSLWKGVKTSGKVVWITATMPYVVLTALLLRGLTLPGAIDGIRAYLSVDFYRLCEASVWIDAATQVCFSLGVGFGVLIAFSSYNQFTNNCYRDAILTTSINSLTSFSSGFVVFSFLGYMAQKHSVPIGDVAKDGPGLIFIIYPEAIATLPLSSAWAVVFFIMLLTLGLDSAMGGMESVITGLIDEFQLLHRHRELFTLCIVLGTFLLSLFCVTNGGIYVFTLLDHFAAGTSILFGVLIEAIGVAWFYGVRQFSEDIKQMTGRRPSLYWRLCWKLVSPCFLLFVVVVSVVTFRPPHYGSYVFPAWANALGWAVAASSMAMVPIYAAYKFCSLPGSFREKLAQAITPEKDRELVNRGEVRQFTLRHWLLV

For the compound `CC(N)CC(c1cccc(F)c1)c1cccc(F)c1` (stereo not shown) [Compound 22, 3,3-bis(3-fluorophenyl)-1-methyl-1-propylamine], in data set [1], the LD50 worked out at 18.3 mg/kg. Besides, the results for the IC50 in data set [2] and in data set [5] were 0.145 µM and 3.45 µM, respectively. Besides, the ED50 in data set [3] (ip) was 4.9 mg/kg; in data set [3] (oral), 5.1 mg/kg. Besides, the “TD50 (inverted grid)” value in [4] is listed as 26.8 mg/kg. The “no significant cardiovascular activity in anesthetized rats at doses up to” value in data set [6] is at most 4.47 mg/kg.

`C[C@@H](CN)C(c1cccc(F)c1)c1cccc(F)c1` [Compound 33, 3,3-bis(3-fluorophenyl)-2-methyl-1-propylamine]: the behavioral effects entry in data set [7] (8 mg/kg i.p.) was “excitation, increased reactivity to touch, and hypothermia”; in data set [7] (64 mg/kg i.p.), “convulsions”; in [7] (2 and 4 mg/kg i.p.) it was “no behavioral effects”; in data set [7] (16 and 32 mg/kg i.p.), “excitation, Straub tail, tremor, jumping, stereotypies, hypothermia, and mydriasis”; in data set [7] (128 and 256 mg/kg i.p.) it was “convulsions and death”; in data set [9] (setting [24]), “licking of the mouth”. Also, the behavioral effects result in [9] (setting [25]) is “dilated pupils, whole body tremors, incoordination, licking of the mouth, salivation, and panting”. The motor toxicity result in data set [8] was “no motor toxicity apparent”. In addition, the 50% inhibitory concentration (IC50) is 0.06 µM in data set [2], 0.181 µM in [5], over 10 µM in data set [22] and 1.6 µM in data set [23]. Moreover, the “Monoamine uptake binding assays: dopamine uptake binding assay, percent block” value in [10] (at 0.1 μM) was 23% at; in [10] (at 10 μM) it was 0.1^f86% at. Besides, the 50% effect level in data set [3] (ip) (ED50) was put at a dose of 4.6 mg/kg. Further, the cardiovascular activity entry in data set [11] (0.3 mg/kg i.v. (60 sec bolus injection)) is listed as “no significant cardiovascular activity”. The mean arterial pressure result was “transient increases in mean arterial pressure” in data set [11] (1 mg/kg i.v. (60 sec bolus injection)); “larger magnitude and longer duration effects” in data set [11] (setting [24]); “larger magnitude and longer duration effects” in data set [11] (setting [25]). In addition, the heart rate entry in data set [11] (setting [25]) is on record as “a transient increase in heart rate”. In addition, the “changes in the ECG” value in [11] (doses up to 10 mg/kg i.v. (60 sec bolus injection)) was “no significant drug-induced changes in the ECG”. In addition, the TD50 in [12] was 27.8 mg/kg. Moreover, the “anticonvulsant activity against maximal electroshock-induced seizures” value in data set [13] is listed as “significant anticonvulsant activity”. Moreover, the “analgesic activity, rat 48° C. tail flick test” value in data set [14] is “no significant analgesic activity”. The “neuroprotectant activity in a rat model of focal ischemic stroke” value in data set [15] is given as “significant neuroprotectant activity”. In [16], the “analgesic activity, rat 52° C. hot plate test” value is “no significant analgesic activity”. In addition, the “dose without neuronal vacuolization” value in data set [17] came to 30 mg/kg. The “Central muscarinic cholinergic receptor: percent block of [3H]QNB binding” value in [18] (at 0.1 μM) is 42% at; in [18] (at 10 μM), 0.199% at. The “analgesic activity, chronic neuropathic pain” value in [19] (i.p., doses of 3-10 mg/kg) is listed as “significant analgesic activity”; in data set [19] (i.th., doses ranging from 15 to 80 μg) it was “significant analgesic activity”. The “Monoamine uptake binding assays: norepinephrine uptake binding assay, percent block” value in data set [20] (at 0.1 μM) is 10^f2% at; in [20] (at 10 μM), 0.1^g54% at. Further, the “Monoamine uptake binding assays: serotonin uptake binding assay, percent block” value is 10^g14% at in [21] (at 0.1 μM) and 0.1^h89% at in data set [21] (at 10 μM). Further, the “no significant cardiovascular activity in anesthetized rats at doses up to” value in data set [6] is recorded as “up to 3 mg/kg”.
